Measurements taken from ChEMBL document CHEMBL1127270, “Enantioselective synthesis of PD144723: a potent stereospecific anticonvulsant” (Bioorg Med Chem Lett, 1994).

Tests used:
[1] = In vitro inhibition of [3H]-gabapentin binding to partially purified rat neocortex synaptic plasma membranes; format: cell membranes, Membrane
Mus musculus [2] = species: Mus musculus; assay: Effective dose for anticonvulsant activity (blocking maximal electroshock seizures) in male CF-1 strain mice was measured.; format: functional
Mus musculus [3] = assay: Percent of mice protected in blocking maximal electroshock seizures test at a dose of 75 mg/kg, iv,; format: functional
Mus musculus [4] = assay: Percent of mice protected in blocking maximal electroshock seizures test at a dose of 150 mg/kg, iv,; format: functional
Mus musculus [5] = assay: Percent of mice protected in blocking maximal electroshock seizures test at a dose of 50 mg/kg, iv,; format: functional
Mus musculus [6] = assay: Percent of mice protected in blocking maximal electroshock seizures test at a dose of 750 mg/kg, iv,; format: functional
Mus musculus [7] = assay: Percent of mice protected in blocking maximal electroshock seizures test at a dose of 450 mg/kg, iv,; format: functional
Rattus norvegicus [8] = species: Rattus norvegicus; assay: In vitro percent inhibition of [3H]gabapentin binding at log molar concentration of -5.5
Rattus norvegicus [9] = species: Rattus norvegicus; assay: In vitro percent inhibition of [3H]gabapentin binding at log molar concentration of -7
Rattus norvegicus [10] = species: Rattus norvegicus; assay: In vitro percent inhibition of [3H]gabapentin binding at log molar concentration of -5
Rattus norvegicus [11] = species: Rattus norvegicus; assay: In vitro percent inhibition of [3H]gabapentin binding at log molar concentration of -6.5
Rattus norvegicus [12] = species: Rattus norvegicus; assay: In vitro percent inhibition of [3H]gabapentin binding at log molar concentration of -4.5
Rattus norvegicus [13] = species: Rattus norvegicus; assay: In vitro percent inhibition of [3H]gabapentin binding at log molar concentration of -8
Rattus norvegicus [14] = species: Rattus norvegicus; assay: In vitro percent inhibition of [3H]gabapentin binding at log molar concentration of -8.5
Rattus norvegicus [15] = species: Rattus norvegicus; assay: In vitro percent inhibition of [3H]gabapentin binding at log molar concentration of -6
Rattus norvegicus [16] = species: Rattus norvegicus; assay: In vitro percent inhibition of [3H]gabapentin binding at log molar concentration of -7.5
Rattus norvegicus [17] = species: Rattus norvegicus; assay: In vitro percent inhibition of [3H]gabapentin binding at log molar concentration of -4
Mus musculus [18] = assay: Percent of mice protected in blocking maximal electroshock seizures test at a dose of 100 mg/kg, iv,; format: functional
Mus musculus [19] = assay: Percent of mice protected in blocking maximal electroshock seizures test at a dose of 500 mg/kg, iv,; format: functional

Structure (SMILES)	IC50 [1]	ED50 (Mus musculus [2])	Protected (Mus musculus [3])	Protected (Mus musculus [4])	Protected (Mus musculus [5])	Protected (Mus musculus [6])	Protected (Mus musculus [7])	inhibition (Rattus norvegicus [8])	inhibition (Rattus norvegicus [9])	inhibition (Rattus norvegicus [10])	inhibition (Rattus norvegicus [11])	inhibition (Rattus norvegicus [12])	inhibition (Rattus norvegicus [13])	inhibition (Rattus norvegicus [14])	inhibition (Rattus norvegicus [15])	inhibition (Rattus norvegicus [16])	inhibition (Rattus norvegicus [17])	Protection (Mus musculus [18])	Protection (Mus musculus [19])
NCC1(CC(=O)O)CCCCC1 [GABAPENTIN]	80 nM	87 mg/kg	~70%	~75%	~1%	~99%	~74%												
CC(C)CC(CN)CC(=O)O (racemic)	83 nM							92%	50%	94%	74%	98%	12%	10%	90%	30%	100%		
CC(C)C[C@H](CN)CC(=O)O [PREGABALIN]	37 nM	20 mg/kg						94%	75%	98%	85%	100%	25%		90%	50%			
CC(C)C[C@@H](CN)CC(=O)O	620 nM	> 300 mg/kg						80%	8%	80%	38%	90%	0%		60%	10%		~94%	~1%
